{"source": "ChEMBL document CHEMBL1201862", "about": "“PubChem BioAssay data set” (2004)", "key": {"HEK293 [1]": {"test_system": "HEK293", "assay": "optical interference in Abeta FP readout, dose response, artefact control for IDE activator project, biochemical, fluorescence polarization (AID 588442)", "assay_type": "functional, cell-based", "conditions": "Homo sapiens"}, "Insulin-degrading enzyme [2]": {"target": "T1, Insulin-degrading enzyme (Homo sapiens, UniProt P14735)", "T1 sequence (P14735 whole entry)": "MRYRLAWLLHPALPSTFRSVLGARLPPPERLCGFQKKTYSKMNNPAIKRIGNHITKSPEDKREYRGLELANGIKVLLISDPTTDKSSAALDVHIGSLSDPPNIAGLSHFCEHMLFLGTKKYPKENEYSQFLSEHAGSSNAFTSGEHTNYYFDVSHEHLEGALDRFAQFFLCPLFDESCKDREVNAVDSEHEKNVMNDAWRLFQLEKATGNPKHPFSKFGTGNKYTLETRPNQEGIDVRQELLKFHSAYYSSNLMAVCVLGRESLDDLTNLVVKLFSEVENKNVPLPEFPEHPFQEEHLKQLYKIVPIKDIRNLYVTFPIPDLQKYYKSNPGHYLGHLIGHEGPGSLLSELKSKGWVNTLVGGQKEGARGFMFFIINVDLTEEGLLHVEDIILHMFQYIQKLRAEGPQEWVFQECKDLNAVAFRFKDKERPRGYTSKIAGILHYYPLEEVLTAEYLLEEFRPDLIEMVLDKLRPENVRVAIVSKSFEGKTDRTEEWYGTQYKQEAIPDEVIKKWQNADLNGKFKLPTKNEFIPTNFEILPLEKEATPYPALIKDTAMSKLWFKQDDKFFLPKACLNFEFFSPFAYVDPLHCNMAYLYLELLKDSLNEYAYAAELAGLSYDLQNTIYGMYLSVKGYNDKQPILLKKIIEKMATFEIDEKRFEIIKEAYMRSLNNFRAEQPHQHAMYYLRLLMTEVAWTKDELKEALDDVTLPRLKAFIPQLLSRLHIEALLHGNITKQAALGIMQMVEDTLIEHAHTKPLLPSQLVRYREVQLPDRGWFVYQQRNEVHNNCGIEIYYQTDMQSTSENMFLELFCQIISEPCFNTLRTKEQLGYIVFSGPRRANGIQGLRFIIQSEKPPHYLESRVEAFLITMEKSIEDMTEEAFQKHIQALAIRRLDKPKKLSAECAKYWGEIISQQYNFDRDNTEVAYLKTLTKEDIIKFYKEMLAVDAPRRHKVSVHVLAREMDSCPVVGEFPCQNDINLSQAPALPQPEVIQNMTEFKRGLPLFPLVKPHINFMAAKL", "assay": "activators of endogenous IDE in HEK cells, dose response, cell-based, fluorescence polarization (AID 588439)", "assay_type": "functional"}, "HEK293 [3]": {"test_system": "HEK293", "assay": "HEK cell cytotoxicity by LDH release, dose response, cytotoxicity control for IDE activator project, fluorescence, HEK cells (AID 588440);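 note: cytotoxicity by LDH release measuring loss of membrane integrity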", "assay_type": "functional, cell-based", "conditions": "Homo sapiens"}, "Insulin-degrading enzyme [4]": {"target": "T1, Insulin-degrading enzyme", "assay": "activators of recombinant IDE enzyme, dose response, counter-screen for IDE activator project, biochemical, fluorescence polarization (AID 588681)"}, "[5]": {"target": "T2, Ubiquitin-conjugating enzyme E2 N (Homo sapiens, UniProt P61088)", "T2 sequence (P61088 whole entry)": "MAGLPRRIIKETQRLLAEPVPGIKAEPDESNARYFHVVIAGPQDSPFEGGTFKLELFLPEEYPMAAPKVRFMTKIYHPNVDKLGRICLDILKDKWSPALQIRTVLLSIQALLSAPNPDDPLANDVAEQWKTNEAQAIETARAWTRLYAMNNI", "assay_type": "functional"}, "[6]": {"assay": "MDA-MB-231 cell growth inhibition, dose response, cytotoxicity control for RAD54 inhibitor project, CellTiter-Glo luminescence, cherry-pick (AID 651692)", "assay_type": "functional, cell-based"}, "[7]": {"assay": "Luminescence Cell-Based Dose Retest to Confirm Inhibitors of Cancer Stem Cells. [Related pubchem assays (depositor defined):AID2717, AID2721]", "assay_type": "functional", "conditions": "Homo sapiens"}, "[8]": {"assay": "microbe, parasite or virus in culture", "assay_type": "functional", "conditions": "Mycobacterium tuberculosis"}, "[9]": {"target": "Glycogen synthase kinase-3 alpha (Homo sapiens, UniProt P49840)", "sequence (P49840 whole entry)": "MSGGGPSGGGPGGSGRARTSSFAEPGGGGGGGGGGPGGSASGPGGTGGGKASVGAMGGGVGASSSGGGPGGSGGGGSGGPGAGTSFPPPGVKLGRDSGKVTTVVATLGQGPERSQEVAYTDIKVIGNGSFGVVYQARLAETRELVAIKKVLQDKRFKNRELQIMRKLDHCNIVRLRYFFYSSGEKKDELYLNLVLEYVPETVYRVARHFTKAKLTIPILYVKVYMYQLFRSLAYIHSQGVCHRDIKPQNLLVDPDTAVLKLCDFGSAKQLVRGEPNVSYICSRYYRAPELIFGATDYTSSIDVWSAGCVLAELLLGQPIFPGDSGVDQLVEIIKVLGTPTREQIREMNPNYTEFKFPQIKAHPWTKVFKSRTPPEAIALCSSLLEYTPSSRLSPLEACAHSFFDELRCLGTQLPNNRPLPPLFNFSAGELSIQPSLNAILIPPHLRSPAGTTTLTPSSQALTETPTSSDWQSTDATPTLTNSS", "assay": "Inhibition of Human GSK-3 alpha Activity Measured in Biochemical System Using Microfluidics - 2063-06_Inhibitor_Dose_DryPowder_Activity_Set2. [Related pubchem assays (depositor defined):AID2709]"}, "[10]": {"target": "Glycogen synthase kinase-3 beta (Homo sapiens, UniProt P49841)", "sequence (P49841 whole entry)": "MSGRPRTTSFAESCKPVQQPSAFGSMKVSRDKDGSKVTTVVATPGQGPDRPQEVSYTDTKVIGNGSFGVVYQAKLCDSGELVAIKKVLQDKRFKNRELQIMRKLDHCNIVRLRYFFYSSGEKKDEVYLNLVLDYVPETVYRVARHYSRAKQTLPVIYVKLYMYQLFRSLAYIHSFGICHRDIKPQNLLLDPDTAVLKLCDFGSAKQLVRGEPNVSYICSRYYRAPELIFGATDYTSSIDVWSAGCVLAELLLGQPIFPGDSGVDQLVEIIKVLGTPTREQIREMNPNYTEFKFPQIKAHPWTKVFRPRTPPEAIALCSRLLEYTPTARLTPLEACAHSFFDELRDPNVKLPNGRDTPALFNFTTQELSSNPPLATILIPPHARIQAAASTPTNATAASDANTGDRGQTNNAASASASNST", "assay": "Inhibition of Human GSK-3 beta Activity Measured in Biochemical System Using Microfluidics - 2063-05_Inhibitor_Dose_DryPowder_Activity_Set2. [Related pubchem assays (depositor defined):AID2709]"}, "[11]": {"assay": "growth suppression of PTEN-null colon cells, dose response, cell-based, HCT116 PTEN knockout (AID 1047);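 note: HCT116 colon tumor cells with PTEN knocked out; cells exposed to compound for 60 hours before readout; potency for loss of cell viability measured by luminescence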", "assay_type": "functional"}, "[12]": {"assay": "growth suppression of beta-catenin-knockout colon cells, dose response, cell-based, HCT116, human colon tumor (AID 1045);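 note: HCT116 colon tumor cells with beta catenin knocked out; cells exposed to compound for 60 hours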", "assay_type": "functional"}, "[13]": {"target": "T3, High affinity choline transporter 1 (Homo sapiens, UniProt Q9GZV3)", "T3 sequence (Q9GZV3 whole entry)": "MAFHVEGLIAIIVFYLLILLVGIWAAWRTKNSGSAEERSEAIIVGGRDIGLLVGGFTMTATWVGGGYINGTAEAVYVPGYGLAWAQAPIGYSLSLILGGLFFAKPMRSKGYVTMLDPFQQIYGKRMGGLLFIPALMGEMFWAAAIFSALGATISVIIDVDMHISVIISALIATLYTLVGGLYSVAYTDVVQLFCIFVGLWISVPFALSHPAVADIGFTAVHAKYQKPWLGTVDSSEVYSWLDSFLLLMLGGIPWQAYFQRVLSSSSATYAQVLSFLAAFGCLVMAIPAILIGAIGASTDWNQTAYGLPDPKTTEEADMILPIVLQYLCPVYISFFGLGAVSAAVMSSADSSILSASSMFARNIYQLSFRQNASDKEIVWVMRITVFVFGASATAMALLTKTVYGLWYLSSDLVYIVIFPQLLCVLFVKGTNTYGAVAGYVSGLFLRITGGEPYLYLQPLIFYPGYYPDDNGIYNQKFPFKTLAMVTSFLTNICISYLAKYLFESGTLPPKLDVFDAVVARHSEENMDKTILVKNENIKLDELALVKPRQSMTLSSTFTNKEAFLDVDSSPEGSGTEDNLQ", "assay": "CHT activators, dose response, cell-based, 10-point CRC, membrane potential dye (AID 602376)", "assay_type": "functional"}}, "note": "Calls of active or inactive are those of the source."}
{"smiles": "O=C(NCC1CC1)c1onc(CSc2ccc(F)c(F)c2)c1C(=O)NCC1CC1", "values": [{"measurement": "EC50", "setting": "HEK293 [1]", "value": "> 54.7 µM (inactive)"}, {"measurement": "EC50", "setting": "Insulin-degrading enzyme [2]", "value": "> 54.7 µM (inactive)"}, {"measurement": "IC50", "setting": "HEK293 [3]", "value": "> 89.3 µM (inactive)"}, {"measurement": "EC50", "setting": "Insulin-degrading enzyme [4]", "value": "> 54.7 µM (inactive)"}]}
{"smiles": "Cc1ccc(C)c(N2CCN(C(=S)Nc3ccc4nc(N5CCN(C)CC5)cc(C)c4c3)CC2)c1", "values": [{"measurement": "IC50", "setting": "[5]", "value": "> 20 µM (inactive)"}, {"measurement": "AC50", "setting": "[6]", "value": "34.8 µM (active)"}, {"measurement": "AC50", "setting": "[7]", "value": "13.3 µM (active)"}, {"measurement": "EC50", "setting": "HEK293 [1]", "value": "> 55.9 µM (inactive)"}, {"measurement": "EC50", "setting": "Insulin-degrading enzyme [2]", "value": "> 54.7 µM (inactive)"}, {"measurement": "CC50", "setting": "[8]", "value": "17.1 µM (active)"}, {"measurement": "IC50", "setting": "HEK293 [3]", "value": "18 µM (inactive)"}, {"measurement": "EC50", "setting": "Insulin-degrading enzyme [4]", "value": "> 54.7 µM (inactive)"}]}
{"smiles": "Nc1nc(NCCCN2CCOCC2)nc(Nc2cccc(Cl)c2)c1[N+](=O)[O-]", "values": [{"measurement": "AC50", "setting": "[9]", "value": "0.429 µM (active)"}, {"measurement": "AC50", "setting": "[10]", "value": "0.253 µM (active)"}]}
{"smiles": "O=C(Cc1cccs1)N(Cc1ccco1)C1(C(=O)NC2CCCCC2)CCCCC1", "values": [{"measurement": "EC50", "setting": "[11]", "value": "159 µM (active)"}, {"measurement": "EC50", "setting": "[12]", "value": "431 µM (active)"}, {"measurement": "EC50", "setting": "[13]", "value": "24.2 µM (active)"}]}
